Assay results from patent EP0068669A1, “Secondary phenylethanol amines, processes for their preparation and their pharmaceutical application” (priority 1981, dated 1983).

How the values were obtained:
Assay type in all cases: in vivo
Male CFLP mice = assay: Platelet aggregation inhibition activity, response to intravenous collagen; conditions: oral dose two hours before intravenous collagen 400 µg/kg; blood platelet concentration 30 sec after collagen; Aspirin 600(108), Example 8 2.5 (1) µmol(mg)/kg p.o.
Method: Male CFLP mice (ca 20 g, n=8) were dosed orally with compound or vehicle (controls) after an overnight fast. Two hours later each mouse received an intravenous dose of collagen (400 µg/kg, pH 6-6.6). Exactly 30 sec after injection of collagen, each mouse was placed in a chamber of C02 until respiration ceased. […] Each concentration was expressed as a per cent of that obtained in a tail blood sample taken immediately before injection of collagen.

Female CFLP mice [1] = assay: Effect on energy expenditure and food intake of mice; conditions: 19.5-26.3 mg/kg p.o. (per compound, see Dose column); for Mean Food Intake: percentage of mean food intake of mice dosed with water, over 21 hours after a single oral dose; for Mean Energy Expenditure (0-3 h) / Mean Energy Expenditure (0-21 h): percentage of mean rate of energy expenditure of mice dosed with water, single oral dose, 12 mice; for Mean Energy Expenditure (0-3 h): 0-3 h after dosing; for Mean Energy Expenditure (0-21 h): 0-21 h after dosing
Method: The compounds were dissolved in water by addition of one mole of hydrochloric acid per mole of compound and these solutions were administered orally to each of 12 mice. A further 12 mice were dosed orally with water. The mice were placed in boxes through which air was drawn and the oxygen content of the air leaving the boxes was measured. The energy expenditure of the mice was calculated for 21 hours after dosing from the volume of air leaving the boxes and its oxygen content, following the principles described by J.B. de V. Weir, J. Ph^ysiol. (London) 109, 1-9, (1949). The food intake of the mice was measured over this same period of 21 hours. The results are expressed as a percentage of the mean food intake or rate of energy expenditure of the mice dosed with water.

Female CFLP mice [2] = assay: Hypoglycaemic activity, subcutaneous glucose load in fasted mice; conditions: oral dose 1.0-12.5 μmol/kg (per compound, see Dose column), 30 minutes before glucose 1 g/kg subcutaneously; area over 2 hours compared with control mice given water; mice fasted 24 hours
Method: Female CFLP mice, weighing approximately 25 g, were fasted for 24 hours prior to the study. The compounds under study were administered orally as an aqueous solution to each of 8 mice. 30 minutes later a blood sample (20 µℓ) was obtained from the tail for the analysis of blood glucose. Immediately after taking this blood sample, glucose (1 g/kg body weight) was administered subcutaneously to each mouse. 8 mice were given water as a control. Blood samples were then obtained from each mouse at 30-minute intervals for 120 minutes.
Compounds that produced a significant (P<0.05) reduction of blood glucose, compared with control mice given water, at any time interval , were considered active. The area under the blood glucose curve over the 2 hour period after the administration of the glucose was calculated for each compound and compared with the value for control animals.

Compound	% Inhibition of response to collagen (Male CFLP mice)	Mean Food Intake (Female CFLP mice [1])	Mean Energy Expenditure (0-3 h) (Female CFLP mice [1])	Mean Energy Expenditure (0-21 h) (Female CFLP mice [1])	% Reduction in area under Blood glucose curve (Female CFLP mice [2])
CC(=O)Oc1ccccc1C(=O)O [Aspirin, reference compound]	38 p<0.05%				
CC(Cc1ccc(NS(C)(=O)=O)cc1)NCC(O)c1ccccc1 (centres unmarked) [Example 1, N-(2-(4-Methylsulphonylaminophenyl)-1-methylethyl]-2-hydroxy-2-phenylethanamine]		80 percentage	130 percentage	95 percentage	24.7%
CC(Cc1ccc(NS(C)(=O)=O)cc1)NCC(O)c1cccc(C(F)(F)F)c1 (centres unmarked) [Example 2, N-[2-(4-Methylsulphonylaminophenyl)-1-methylethyl]-2-hydroxy-2-(3-trifluoromethylphenyl)ethanamine]		99 percentage	142 percentage	102 percentage	
CCOC(=O)Nc1ccc(CC(C)NCC(O)c2cccc(C(F)(F)F)c2)cc1 (centres unmarked) [Example 3, N-[2-(4-Ethoxycarbonylaminophenyl)-1-methylethyl]-2-hydroxy-2-(3-trifluoromethylphenyl)ethanamine]		76 percentage	139 percentage	121 percentage	
CC(=O)Nc1ccc(CC(C)NCC(O)c2cccc(C(F)(F)F)c2)cc1 (centres unmarked) [Example 4, N-(2-(4-Acetylaminophenyl)-1-methylethyl)-2-hydroxy-2-(3-trifluoromethylphenyl)ethanamine]		72 percentage	151 percentage	115 percentage	15.9%
CNC(=O)Nc1ccc(CC(C)NCC(O)c2cccc(C(F)(F)F)c2)cc1 (centres unmarked) [Example 5, N-[2-(4-Methylaminocarbonylaminophenyl)-1-methylethyl]-2-hydroy-2-(3-trifluoromethylphenyl)ethanamine]		72 percentage	159 percentage	121 percentage	
CCNc1ccc(CC(C)NCC(O)c2cccc(C(F)(F)F)c2)cc1 (centres unmarked) [Example 6, N-[2-(4-Ethylaminophenyl)-1-methylethyl]-2-hydroxy-2-(3-trifluoromethvlphenvl)ethanamine]		108 percentage	169 percentage	128 percentage	
CC(Cc1ccc(N)cc1)NCC(O)c1cccc(C(F)(F)F)c1 (centres unmarked) [Example 7, N-[2-(4-Aminophenyl)-1-methylethyl]-2-hydroxy-2-(3-trifluoromethylphenyl) ethanamine]		84 percentage	182 percentage	118 percentage	38.0%
COC(=O)CNc1ccc(CC(C)NCC(O)c2cccc(C(F)(F)F)c2)cc1 (centres unmarked) [Example 8, N-[2-(4-Methoxycarbonylmethylaminophenyl)-1-methylethyl] -2-hydroxy-2-(3-trifluoromethylphenyl) ethanamine]	42 p<0.02%		140 percentage		36.2%
CC(Cc1ccc([N+](=O)[O-])cc1)NCC(O)c1cccc(C(F)(F)F)c1 (centres unmarked) [Example 9, N-[2-(4-Nitrophenyl)-1-methylethyl]-2-hydroxy-2-(3-trifluoromethylphenyl) ethanamine]		94 percentage	112 percentage	115 percentage	13.2%
CC(Cc1ccc(N(C)C)cc1)NCC(O)c1cccc(C(F)(F)F)c1 (centres unmarked) [Example 10, N-[2-(4-Dimethylaminophenyl]-1-methylethyl]-2-hydroxy-2-(3-trifluoromethylphenvl)ethanamine]		70 percentage	169 percentage	125 percentage	
CC(Cc1ccc(N2CCCC2)cc1)NCC(O)c1cccc(C(F)(F)F)c1 (centres unmarked) [Example 11, N-[2-(4-(1-Pyrrolidyl)phenyl)-1-methylethyl] -2-hydroxy-2-(3-trifluoromethylphenyl)ethanamine]		95 percentage	151 percentage	112 percentage	
CC(Cc1ccc(N2CCOCC2)cc1)NCC(O)c1cccc(C(F)(F)F)c1 (centres unmarked) [Example 12, N-[2-(4-(4-Morpholino)phenyl)-1-methylethyl]-2-hydroxy-2-(3-trifluoromethylphenyl)ethanamine]		72 percentage	143 percentage	121 percentage	
CCOC(=O)C1CCN(c2ccc(CC(C)NCC(O)c3cccc(C(F)(F)F)c3)cc2)CC1 (centres unmarked) [Example 13, N-[2-(4-(1-(4-Carboethoxy)piperidyl)phenyl)-1-methylethyl]-2-hydroxy-2-(3-trifluoromethylphenyl)ethanamine]		95 percentage	121 percentage	103 percentage	
CNC(=O)C1CCN(c2ccc(CC(C)NCC(O)c3cccc(C(F)(F)F)c3)cc2)CC1 (centres unmarked) [Example 14, N-[2-(4-(1-(4-N'-Methylcarboxamido)piperidyl)phenyl)-1-methylethyl]-2-hydroxy-2-(3-trifluoromethylphenyl)ethanamine]		106 percentage	118 percentage	102 percentage	
